Test results taken from PMC11050816, “Pharmacokinetics and Safety of Lurbinectedin Administrated with Itraconazole in Cancer Patients: A Drug–Drug Interaction Study” (Marine Drugs, 2024).
Read-outs that look alike come from different tables or passages of the source.

Legend:
[1] = Total plasma lurbinectedin pharmacokinetics with and without itraconazole (phase Ib drug-drug interaction study); type: in vivo, human
Description: (§1) The study consisted of two parts.

[2] = Unbound plasma lurbinectedin pharmacokinetics with and without itraconazole (phase Ib drug-drug interaction study); type: in vivo, human
Description: as §1

[3] = Safety assessment: adverse events and laboratory abnormalities graded by NCI-CTCAE v. 5.0; type: in vivo, human
Description: Safety analyses included all 14 patients who received at least one dose of lurbinectedin (Part A, n = 3; Part B, n = 11). Thirteen of the fourteen treated patients (three in Part A and ten in Part B) received itraconazole plus lurbinectedin in Cycles 1 or 2, and all fourteen treated patients (three in Part A and 11 in Part B) received lurbinectedin alone in Cycles 1, 2, or 3.
as §1
Safety evaluations included assessments of AEs, clinical laboratory tests, deaths, vital signs measurements, and physical examinations. TEAEs were defined as any AE that worsened in severity from baseline or having their onset between the first dose of the study drug and 31 days (±10 days) after the last dose, death, or date of further therapy. AEs were coded based on the Medical Dictionary for Regulatory Activities (MedDRA) v. 23.0 and graded as per the National Cancer Institute–Common Terminology Criteria for Adverse Events (NCI-CTCAE) v. 5.0.

[4] = cited from earlier work
[5] = set-up: method as in PMID 24563480; conditions: 1.3 mg/m^2 over 1 h without CYP3A4 inhibitors; cited from earlier work
[6] = cited from earlier work; remark: listed apart in the source
cytochrome P450 (CYP) 3A = conditions: based on in vitro studies; cited from earlier work
[7] = co-administration with itraconazole compared to lurbinectedin alone
[8] = co-administration with itraconazole compared to lurbinectedin alone, listed as LRB
[9] = co-administration with multiple oral doses of itraconazole
[10] = total plasma lurbinectedin, n = 8 patients per treatment
[11] = unbound plasma lurbinectedin, Test n = 5, Reference n = 8
[12] = Part A (LRB 0.8 mg/m^2 with ITZ, 3.2 mg/m^2 alone), all grades
[13] = Part A (LRB 0.8 mg/m^2 with ITZ, 3.2 mg/m^2 alone), grade 3
[14] = Part A (LRB 0.8 mg/m^2 with ITZ, 3.2 mg/m^2 alone), grade 4
[15] = Part B (LRB 0.9 mg/m^2 with ITZ, 3.2 mg/m^2 alone), all grades
[16] = Part B (LRB 0.9 mg/m^2 with ITZ, 3.2 mg/m^2 alone), grade 3
[17] = Part B (LRB 0.9 mg/m^2 with ITZ, 3.2 mg/m^2 alone), grade 4

For `COc1ccc2[nH]c3c(c2c1)CCN[C@]31CS[C@@H]2c3c(OC(C)=O)c(C)c4c(c3[C@H](COC1=O)N1[C@@H]2[C@H]2c3c(cc(C)c(OC)c3O)C[C@@H]([C@@H]1O)N2C)OCO4` [lurbinectedin], the “Increase of total plasma AUC0–t” value [1, 7] was “approximately 2.4 fold”, the “Increase of total plasma AUC0–∞” value [1, 7] was “approximately 2.7 fold” and the “Increase of total plasma Cmax” value [1, 7] was 15%. For the same compound, the “Increase of total plasma AUC0–t” value [1, 8] was 2.4 fold, the “Increase of total plasma AUC0–∞” value [1, 8] was 2.7 fold and the “Prolongation of terminal half-life (t1/2), total plasma” value [1, 9] was 2.2 fold. For the same compound, the “Reduction of total plasma CL” value [1, 9] was 63%, the clearance ([1]; human, intravenous, 3.2 mg/m^2, total plasma lurbinectedin, n = 8 patients per treatment, read-out: CL, geometric mean (CV%) (converted)) was 158 mL/min and the Vd ([1]; human, intravenous, 3.2 mg/m^2, total plasma lurbinectedin, n = 8 patients per treatment, read-out: Vss, geometric mean (CV%)) was 419 L. For the same compound, the half-life ([1]; human, intravenous, 3.2 mg/m^2, total plasma lurbinectedin, n = 8 patients per treatment, read-out: t1/2, geometric mean (CV%) (converted)) was 46.6 h, the “AUC0–t, dose-normalized, geometric mean (CV%)” value [1, 10] was 103.4 (78.85) µg·h/L/mg and the “AUC0–∞, dose-normalized, geometric mean (CV%)” value [1, 10] was 105.8 (77.37) µg·h/L/mg. For the same compound, the “Cmax, dose-normalized, geometric mean (CV%)” value [1, 10] was 22.43 (53.75) µg/L/mg, the “Decrease of unbound CL” value [2, 7] was 58% and the “Increase of unbound AUC0–∞” value [2, 7] was 2.4 fold. The “Unbound t1/2 longer” value [2, 7] was 2 fold, the Vd ([2]; human, intravenous, 3.2 mg/m^2, unbound plasma lurbinectedin, Test n = 5, Reference n = 8, read-out: Unbound Vss, geometric mean (CV%)) was 235000 L and the half-life ([2]; human, intravenous, 3.2 mg/m^2, unbound plasma lurbinectedin, Test n = 5, Reference n = 8, read-out: Unbound t1/2, geometric mean (CV%) (converted)) was 46.6 h. For the same compound, the “Unbound AUC0–t, dose-normalized, geometric mean (CV%)” value [2, 11] was 184.55 (57.58) pg·h/mL/mg, the “Unbound AUC0–∞, dose-normalized, geometric mean (CV%)” value [2, 11] was 188.84 (56.92) pg·h/mL/mg and the “Unbound CL, geometric mean (CV%)” value [2, 11] was 5295.44 (56.92) L/h. The “Unbound Cmax, dose-normalized, geometric mean (CV%)” value [2, 11] was 40.03 (21.75) pg/mL/mg, the Tolerability ([3]; 0.9 mg/m^2 1 h IV infusion Day 1 q3wk with itraconazole) was “well tolerated” and the “ALT increased (biochemical laboratory abnormality, regardless of relationship)” value [3, 12] was 1 (33) n (%) of patients. For the same compound, the “Anemia (hematological laboratory abnormality, regardless of relationship)” value [3, 12] was 3 (100) n (%) of patients, the “Constipation (treatment-related AE)” value [3, 12] was 1 (33) n (%) of patients and the “GGT increased (biochemical laboratory abnormality, regardless of relationship)” value [3, 12] was 1 (33) n (%) of patients. The “Leukopenia (hematological laboratory abnormality, regardless of relationship)” value [3, 12] was 3 (100) n (%) of patients, the “Lymphopenia (hematological laboratory abnormality, regardless of relationship)” value [3, 12] was 3 (100) n (%) of patients and the “Neutropenia (hematological laboratory abnormality, regardless of relationship)” value [3, 12] was 2 (67) n (%) of patients. The “Thrombocytopenia (hematological laboratory abnormality, regardless of relationship)” value [3, 12] was 2 (67) n (%) of patients, the “Vomiting (treatment-related AE)” value [3, 12] was 1 (33) n (%) of patients and the “ALT increased (biochemical laboratory abnormality, regardless of relationship)” value [3, 13] was 1 (33) n (%) of patients. The “Leukopenia (hematological laboratory abnormality, regardless of relationship)” value [3, 13] was 1 (33) n (%) of patients, the “Lymphopenia (hematological laboratory abnormality, regardless of relationship)” value [3, 13] was 1 (33) n (%) of patients and the “Leukopenia (hematological laboratory abnormality, regardless of relationship)” value [3, 14] was 1 (33) n (%) of patients. For the same compound, the “Neutropenia (hematological laboratory abnormality, regardless of relationship)” value [3, 14] was 2 (67) n (%) of patients, the “Bone pain (treatment-emergent AE, regardless of relationship)” value ([3]; Part A, all grades) was 1 (33) n (%) of patients and the “Constipation (treatment-emergent AE, regardless of relationship)” value ([3]; Part A, all grades) was 1 (33) n (%) of patients. For the same compound, the “Dysgeusia (treatment-emergent AE, regardless of relationship)” value ([3]; Part A, all grades) was 1 (33) n (%) of patients, the “Fatigue (treatment-emergent AE, regardless of relationship)” value ([3]; Part A, all grades) was 1 (33) n (%) of patients and the “Pleural effusion (treatment-emergent AE, regardless of relationship)” value ([3]; Part A, all grades) was 1 (33) n (%) of patients. For the same compound, the “Vomiting (treatment-emergent AE, regardless of relationship)” value ([3]; Part A, all grades) was 1 (33) n (%) of patients, the “Pleural effusion (treatment-emergent AE, regardless of relationship)” value ([3]; Part A, grade 3) was 1 (33) n (%) of patients and the “ALT increased (biochemical laboratory abnormality, regardless of relationship)” value [3, 15] was 9 (82) n (%) of patients. The “Acute kidney injury (treatment-related AE)” value [3, 15] was 1 (9) n (%) of patients, the “Anemia (hematological laboratory abnormality, regardless of relationship)” value [3, 15] was 9 (82) n (%) of patients and the “CPK increased (biochemical laboratory abnormality, regardless of relationship)” value [3, 15] was 1 (9) n (%) of patients. The “Fatigue (treatment-related AE)” value [3, 15] was 2 (18) n (%) of patients, the “GGT increased (biochemical laboratory abnormality, regardless of relationship)” value [3, 15] was 4 (36) n (%) of patients and the “Leukopenia (hematological laboratory abnormality, regardless of relationship)” value [3, 15] was 8 (73) n (%) of patients. The “Lymphopenia (hematological laboratory abnormality, regardless of relationship)” value [3, 15] was 9 (82) n (%) of patients, the “Nausea (treatment-related AE)” value [3, 15] was 5 (45) n (%) of patients and the “Neutropenia (hematological laboratory abnormality, regardless of relationship)” value [3, 15] was 8 (73) n (%) of patients. The “Rhabdomyolysis (treatment-related AE)” value [3, 15] was 1 (9) n (%) of patients, the “Thrombocytopenia (hematological laboratory abnormality, regardless of relationship)” value [3, 15] was 8 (73) n (%) of patients and the “Vomiting (treatment-related AE)” value [3, 15] was 3 (27) n (%) of patients. For the same compound, the “Acute kidney injury (treatment-related AE)” value [3, 16] was 1 (9) n (%) of patients, the “Anemia (hematological laboratory abnormality, regardless of relationship)” value [3, 16] was 1 (9) n (%) of patients and the “GGT increased (biochemical laboratory abnormality, regardless of relationship)” value [3, 16] was 1 (9) n (%) of patients. The “Leukopenia (hematological laboratory abnormality, regardless of relationship)” value [3, 16] was 5 (45) n (%) of patients, the “Lymphopenia (hematological laboratory abnormality, regardless of relationship)” value [3, 16] was 2 (18) n (%) of patients and the “Neutropenia (hematological laboratory abnormality, regardless of relationship)” value [3, 16] was 5 (45) n (%) of patients. The “Rhabdomyolysis (treatment-related AE)” value [3, 16] was 1 (9) n (%) of patients, the “Vomiting (treatment-related AE)” value [3, 16] was 1 (9) n (%) of patients and the “CPK increased (biochemical laboratory abnormality, regardless of relationship)” value [3, 17] was 1 (9) n (%) of patients. The “Leukopenia (hematological laboratory abnormality, regardless of relationship)” value [3, 17] was 1 (9) n (%) of patients, the “Lymphopenia (hematological laboratory abnormality, regardless of relationship)” value [3, 17] was 1 (9) n (%) of patients and the “Neutropenia (hematological laboratory abnormality, regardless of relationship)” value [3, 17] was 3 (27) n (%) of patients. For the same compound, the “Thrombocytopenia (hematological laboratory abnormality, regardless of relationship)” value [3, 17] was 1 (9) n (%) of patients, the “Acute kidney injury (treatment-emergent AE, regardless of relationship)” value ([3]; Part B, all grades) was 1 (9) n (%) of patients and the “Deep vein thrombosis (treatment-emergent AE, regardless of relationship)” value ([3]; Part B, all grades) was 1 (9) n (%) of patients. For the same compound, the “Diarrhea (treatment-emergent AE, regardless of relationship)” value ([3]; Part B, all grades) was 1 (9) n (%) of patients, the “Fatigue (treatment-emergent AE, regardless of relationship)” value ([3]; Part B, all grades) was 2 (18) n (%) of patients and the “Intestinal pseudo-obstruction (treatment-emergent AE, regardless of relationship)” value ([3]; Part B, all grades) was 1 (9) n (%) of patients. For the same compound, the “Nausea (treatment-emergent AE, regardless of relationship)” value ([3]; Part B, all grades) was 5 (45) n (%) of patients, the “Respiratory failure (treatment-emergent AE, regardless of relationship)” value ([3]; Part B, all grades) was 1 (9) n (%) of patients and the “Rhabdomyolysis (treatment-emergent AE, regardless of relationship)” value ([3]; Part B, all grades) was 1 (9) n (%) of patients. The “Small intestinal obstruction (treatment-emergent AE, regardless of relationship)” value ([3]; Part B, all grades) was 1 (9) n (%) of patients, the “Stomatitis (treatment-emergent AE, regardless of relationship)” value ([3]; Part B, all grades) was 1 (9) n (%) of patients and the “Vomiting (treatment-emergent AE, regardless of relationship)” value ([3]; Part B, all grades) was 3 (27) n (%) of patients. For the same compound, the “Acute kidney injury (treatment-emergent AE, regardless of relationship)” value ([3]; Part B, grade 3) was 1 (9) n (%) of patients, the “Deep vein thrombosis (treatment-emergent AE, regardless of relationship)” value ([3]; Part B, grade 3) was 1 (9) n (%) of patients and the “Rhabdomyolysis (treatment-emergent AE, regardless of relationship)” value ([3]; Part B, grade 3) was 1 (9) n (%) of patients. The “Small intestinal obstruction (treatment-emergent AE, regardless of relationship)” value ([3]; Part B, grade 3) was 1 (9) n (%) of patients, the “Vomiting (treatment-emergent AE, regardless of relationship)” value ([3]; Part B, grade 3) was 1 (9) n (%) of patients and the “Patients with lurbinectedin dose reduction due to AEs” value ([3]; during treatment with lurbinectedin alone (grade 3 ALT increase; grade 4 neutropenia)) was “Two”. The “Patients who discontinued treatment due to a treatment-related serious AE” value ([3]; grade 3 rhabdomyolysis, Cycle 2 of Part B (Sequence 1), lurbinectedin alone) was “one”, the “Population estimate for total plasma CL” value ([4]; 1 h IV infusion, single agent or combined) was 11.2 L/h and the Extraction ratio [4] was 0.19. The “Population estimate of apparent volume at steady state” value [4] was 438 L, the “Reduction of CL” value ([4]; co-administration of cytochrome CYP3A inhibitors) was 30% and the “Decrease of mean plasma CL” value ([4]; concomitant administration of aprepitant (a moderate CYP3A4 inhibitor)) was 30%. The “Blood CL” value ([4]; corresponding to total plasma CL 11.2 L/h) was ~ 17 L/h, the “Reduction of CL” value ([4]; high C-reactive protein) was 20% and the “Reduction of CL” value ([4]; high α-1-acid glycoprotein) was 28%. The “Reduction of CL” value ([4]; low albumin) was 20%, the “Time after starting the infusion for which plasma concentrations were measurable” value [5] was “at least 160 h” and the Protein binding [6] was “highly protein-bound”. The “Major clearance (CL) mechanism” value (cytochrome P450 (CYP) 3A) was “metabolism of lurbinectedin by cytochrome P450 (CYP) 3A”.
